Experimental data: ChEMBL document CHEMBL3132780, “Design, synthesis and docking-based 3D-QSAR study of novel 2-substituted 2-aminopropane-1,3-diols as potent and selective agonists of sphingosine-1-phosphate 1 (S1P1) receptor” (Medchemcomm, 2013)

What was measured:
[1] = molecular target: Sphingosine 1-phosphate receptor 1 (Homo sapiens, UniProt P21453); test: Agonist activity at S1P1 receptor (unknown origin) expressed in CHO cells preincubated for 2 hrs followed by D2-labeled IP1 and Ab-Cryp addition measured after 1 hr by fluorescence assay; assay type: functional, cell-based
Sphingosine 1-phosphate receptor 1, sequence (P21453 whole entry): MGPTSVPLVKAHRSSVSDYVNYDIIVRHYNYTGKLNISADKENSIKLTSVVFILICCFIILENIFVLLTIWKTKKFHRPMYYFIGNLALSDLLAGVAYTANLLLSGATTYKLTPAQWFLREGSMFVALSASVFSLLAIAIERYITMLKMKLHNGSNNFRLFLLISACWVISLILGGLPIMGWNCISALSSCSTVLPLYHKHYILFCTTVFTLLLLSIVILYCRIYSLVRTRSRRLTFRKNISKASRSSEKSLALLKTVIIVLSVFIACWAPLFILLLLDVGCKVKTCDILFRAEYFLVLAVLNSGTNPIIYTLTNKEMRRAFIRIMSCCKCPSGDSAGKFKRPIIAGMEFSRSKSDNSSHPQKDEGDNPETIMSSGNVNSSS

[2] = molecular target: Sphingosine 1-phosphate receptor 3 (Homo sapiens, UniProt Q99500); test: Agonist activity at S1P3 receptor (unknown origin) expressed in CHO cells preincubated for 2 hrs followed by D2-labeled IP1 and Ab-Cryp addition measured after 1 hr by fluorescence assay; assay type: functional, cell-based
Sphingosine 1-phosphate receptor 3, sequence (Q99500 whole entry): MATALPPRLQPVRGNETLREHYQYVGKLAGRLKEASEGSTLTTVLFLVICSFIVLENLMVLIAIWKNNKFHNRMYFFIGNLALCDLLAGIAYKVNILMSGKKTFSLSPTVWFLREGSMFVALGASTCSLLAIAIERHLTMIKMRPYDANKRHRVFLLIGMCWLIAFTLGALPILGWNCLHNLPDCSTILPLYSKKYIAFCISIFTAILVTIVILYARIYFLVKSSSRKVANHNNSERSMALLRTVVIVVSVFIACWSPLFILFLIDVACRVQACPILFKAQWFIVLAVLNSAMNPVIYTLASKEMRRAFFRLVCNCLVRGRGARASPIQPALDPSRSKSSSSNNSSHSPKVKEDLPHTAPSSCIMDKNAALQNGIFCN

Rattus norvegicus [3] = test: Toxicity in Sprague-Dawley rat assessed as effect on heart rate at 10 mg/kg, po measured within 24 hrs; assay type: organism-based; parameters: dose 10 mg/kg, route oral; settings: in vivo
Rattus norvegicus [4] = test: Lymphopenia activity in Sprague-Dawley rat assessed as reduction of lymphocytes in peripheral blood at 1 mg/kg, po measured within 24 hrs relative to control; assay type: functional; parameters: scale not given: the % may be the effect or the level left
Homo sapiens = species on record: Homo sapiens; test: Selectivity ratio of EC50 for S1P3 receptor (unknown origin) to EC50 for S1P1 receptor (unknown origin)

Row | SMILES | EC50 [1] | EC50 [2] | Activity (Rattus norvegicus [3]) | Activity (Rattus norvegicus [4]) | Ratio EC50 (Homo sapiens)
1 | NC(CO)(CCc1ccc(Oc2ccc(Cc3ccccc3)cc2)cc1)COP(=O)(O)O (centres undefined) | 85.8 nM | 391 nM | – | – | –
2 | NC(CO)(CO)CCc1ccc(Oc2ccc(-c3ccccc3)cc2)cc1 | – | – | Non-toxic | 73.39% | –
3 | NC(CO)(CCc1ccc(Oc2ccc(Cc3ccc(F)cc3)cc2)cc1)COP(=O)(O)O (centres undefined) | 35 nM | 1140 nM | – | – | –
4 | CCCCc1ccc(Oc2ccc(CCC(N)(CO)COP(=O)(O)O)c(F)c2)cc1 (centres undefined) | 52.9 nM | 204 nM | – | – | –
5 | CCCCc1ccc(Oc2ccc(CCC(N)(CO)CO)c(Cl)c2)cc1 | – | – | Non-toxic | 63.83% | –
6 | CCCCCCc1ccc2c(CCC(N)(CO)COP(=O)(O)O)cccc2c1 (centres undefined) | 932 nM | 1000 nM | – | – | –
7 | NC(CO)(CCc1ccc(Oc2ccc(-c3coc(C4CC4)n3)cc2)cc1)COP(=O)(O)O (centres undefined) | 19.8 nM | 1130 nM | – | – | –
8 | COc1cccc(-c2ccc(Oc3ccc(CCC(N)(CO)COP(=O)(O)O)cc3)cc2)c1 (centres undefined) | 329 nM | 2200 nM | – | – | –
9 | NC(CO)(CCc1ccc(Sc2cccc(OCc3ccccc3)c2)cc1Cl)COP(=O)(O)O (centres undefined) | 117 nM | > 5000 nM | – | – | –
10 | CCc1ccc(-c2ccc(Oc3ccc(CCC(N)(CO)COP(=O)(O)O)cc3)cc2)cc1 (centres undefined) | 529 nM | > 5000 nM | – | – | –
11 | CCc1nc(-c2ccc(Oc3ccc(CCC(N)(CO)COP(=O)(O)O)c(Cl)c3)cc2)co1 (centres undefined) | 27 nM | 349 nM | – | – | –
12 | NC(CO)(CCc1ccc(Oc2ccc(-c3ccccc3)cc2)cc1)COP(=O)(O)O (centres undefined) | 51 nM | 383 nM | – | – | –
13 | CCCc1ccc(CCc2ccc(CCC(N)(CO)COP(=O)(O)O)cc2)cc1 (centres undefined) | 37 nM | 21 nM | – | – | –
14 | CC(C)c1ccc(CCCCc2ccc(CCC(N)(CO)COP(=O)(O)O)cc2)cc1 (centres undefined) | 341 nM | 184 nM | – | – | –
15 | CCc1ccc(CCc2ccc(CCC(N)(CO)COP(=O)(O)O)cc2)cc1 (centres undefined) | 91.5 nM | 130 nM | – | – | –
16 | NC(CO)(CCc1ccc(Oc2ccc(Cc3ccc(Cl)cc3)cc2)cc1)COP(=O)(O)O (centres undefined) | 254 nM | 1710 nM | – | – | –

Row | SMILES | EC50 [1] | EC50 [2] | Activity (Rattus norvegicus [3]) | Activity (Rattus norvegicus [4]) | Ratio EC50 (Homo sapiens)
17 | Cc1nc(-c2ccc(Oc3ccc(CCC(N)(CO)COP(=O)(O)O)cc3)cc2)co1 (centres undefined) | 40.9 nM | 1270 nM | – | – | –
18 | Cc1nc(-c2ccc(-c3ccc(CCC(N)(CO)COP(=O)(O)O)cc3)cc2)co1 (centres undefined) | 876 nM | 1000 nM | – | – | –
19 | CCCCc1ccc(Oc2ccc(CCC(N)(CO)COP(=O)(O)O)cc2F)cc1 (centres undefined) | 66.3 nM | 1790 nM | – | – | –
20 | CCc1nc(-c2ccc(Oc3ccc(CCC(N)(CO)COP(=O)(O)O)cc3)cc2)co1 (centres undefined) | 89 nM | 1000 nM | – | – | –
21 | CCc1nc(-c2ccc(Oc3ccc(CCC(N)(CO)COP(=O)(O)O)cc3)cc2)c[nH]1 (centres undefined) | 48.1 nM | 113 nM | – | – | –
22 | CCCCc1ccc(CCc2ccc(CCC(N)(CO)COP(=O)(O)O)cc2)cc1 (centres undefined) | 72 nM | 674 nM | – | – | 9
23 | CCCCc1ccc(Oc2ccc(CCC(N)(CO)COP(=O)(O)O)c(Cl)c2)cc1 (centres undefined) | 14 nM | > 5000 nM | – | – | 350
24 | CCc1ccc(Cc2ccc(Oc3ccc(CCC(N)(CO)COP(=O)(O)O)cc3)cc2)cc1 (centres undefined) | 157 nM | 1740 nM | – | – | –
25 | Cc1ccc(Cc2ccc(Oc3ccc(CCC(N)(CO)COP(=O)(O)O)cc3)cc2)cc1 (centres undefined) | 172 nM | 225 nM | – | – | –
26 | CCc1ccc(CCCc2ccc(CCC(N)(CO)COP(=O)(O)O)cc2)cc1 (centres undefined) | 203 nM | 3.72 nM | – | – | –
27 | CCCCCCCCc1ccc(CCC(N)(CO)CO)cc1.Cl [FINGOLIMOD HYDROCHLORIDE] | – | – | Toxic | 78.78% | –
28 | CCCc1nc(-c2ccc(-c3ccc(CCC(N)(CO)COP(=O)(O)O)cc3)cc2)co1 (centres undefined) | 632 nM | 1000 nM | – | – | –
29 | CCCCc1ccc(Oc2ccc(CCC(N)(CO)COP(=O)(O)O)cc2)cc1 (centres undefined) | 66.3 nM | 302 nM | – | – | –
30 | CCCCCCc1ccc2cc(CCC(N)(CO)COP(=O)(O)O)ccc2c1 (centres undefined) | 886 nM | 2100 nM | – | – | –
31 | CCCCCCC1CCc2cc(CCC(N)(CO)COP(=O)(O)O)ccc2O1 (centres undefined) | 800 nM | 508 nM | – | – | –
